# According to patent publication EP4806898A1, “HETEROARYL DERIVATIVE COMPOUND AND USE THEREOF” (Voronoi Inc., priority 2023, dated 2025):
# Key:
# UWB1.289 cells = assay: Cell proliferation inhibitory activity in BRCA1/2-mutant or HRD-positive cells (Cell Titer-Glo); type: cell-based; conditions: UWB1289; UWB1.289 cells, 144 hours after compound treatment, Cell Titer-Glo, 1.5 nM to 10 µM; read-out: GI50 UWB1.289 BRCA1 mut
# Procedure, shortened: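 UWB1.289 cells (1,000/well) in 50% MEBM/50% RPMI1640 exposed to […], final 1.5 nM to 10 µM, for 144 h at 37 °C. Viable cells measured by CellTiter-Glo luminescence; GI50 calculated.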
# recombinant USP1 protein = molecular target: T1, recombinant USP1 protein (Homo sapiens, UniProt O94782, DEL125-138/DEL229-408/DEL608-737); assay: Binding affinity to recombinant USP1 protein by differential scanning fluorimetry; conditions: compound 100 µM; 0.03 mg/mL USP1 (Δ1-66, Δ125-138, Δ229-408, Δ608-737); Tm with compound minus Tm with DMSO; read-out: ΔTm (°C)
# T1 sequence (O94782 with tags, fused parts or gaps DEL125-138/DEL229-408/DEL608-737): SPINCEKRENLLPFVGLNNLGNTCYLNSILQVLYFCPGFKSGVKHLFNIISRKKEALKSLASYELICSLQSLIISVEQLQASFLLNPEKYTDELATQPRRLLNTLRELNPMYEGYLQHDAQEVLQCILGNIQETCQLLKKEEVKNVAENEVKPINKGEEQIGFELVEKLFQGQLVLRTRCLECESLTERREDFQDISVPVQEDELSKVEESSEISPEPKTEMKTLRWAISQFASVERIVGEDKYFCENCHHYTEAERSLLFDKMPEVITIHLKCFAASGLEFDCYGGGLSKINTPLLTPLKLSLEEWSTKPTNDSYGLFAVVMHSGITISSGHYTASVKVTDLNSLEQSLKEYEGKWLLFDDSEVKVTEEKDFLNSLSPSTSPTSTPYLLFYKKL
# Procedure, shortened: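 USP1 (Δ1-66, Δ125-138, Δ229-408, Δ608-737) at 0.03 mg/mL with dye in 50 mM Tris-HCl pH 8.0, 150 mM NaCl, 2% glycerol, 1 mM DTT; compounds at 100 µM final. Tm read on real-time PCR instrument; ΔTm = Tm with compound minus Tm with DMSO.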
SMILES,GI50 (UWB1.289 cells) [nM],ΔTm at 100 µM (recombinant USP1 protein) [°C]
"COc1ncnc(C2CC2)c1-c1ncc2cc(C(=O)N[C@@H]3CCN(C)C[C@H]3F)n(Cc3ccc(-c4nc(C(F)(F)F)cn4C)cc3)c2n1 [Example 165, 2-(4-cyclopropyl-6-methoxypyrimidin-5-yl)-N-((3R,4R)-3-fluoro-1-methylpiperidin-4-yl)-7-(4-(1-methyl-4-(trifluoromethyl)-1H-imidazol-2-yl)benzyl)-7H-pyrrolo[2,3-d]pyrimidine-6-carboxamide]",< 100,> 5
"COc1ncnc(C2CC2)c1-c1ncc2cc(C(=O)N[C@@H](C)CO)n(Cc3ccc(-c4nc(C(F)(F)F)cn4C)cc3)c2n1 [Example 166, (S)-2-(4-cyclopropyl-6-methoxypyrimidin-5-yl)-N-(1-hydroxypropan-2-yl)-7-(4-(1-methyl-4-(trifluoromethyl)-1H-imidazol-2-yl)benzyl)-7H-pyrrolo[2,3-d]pyrimidine-6-carboxamide]",< 100,> 5
"COc1ncnc(C2CC2)c1-c1ncc2cc(C(=O)N[C@H]3CCN(C)C[C@@H]3F)n(Cc3ccc(-c4nc(C(F)(F)F)cn4C)cc3)c2n1 [Example 167, 2-(4-cyclopropyl-6-methoxypyrimidin-5-yl)-N-((3S,4S)-3-fluoro-1-methylpiperidin-4-yl)-7-(4-(1-methyl-4-(trifluoromethyl)-1H-imidazol-2-yl)benzyl)-7H-pyrrolo[2,3-d]pyrimidine-6-carboxamide]",< 100,> 5
"COc1ncnc(C2CC2)c1-c1ncc2cc(C(=O)N[C@@H]3CCC[C@H]3N(C)C)n(Cc3ccc(-c4nc(C(F)(F)F)cn4C)cc3)c2n1 [Example 168, 2-(4-cyclopropyl-6-methoxypyrimidin-5-yl)-N-((1R,2R)-2-(dimethylamino)cyclopentyl)-7-(4-(1-methyl-4-(trifluoromethyl)-1H-imidazol-2-yl)benzyl)-7H-pyrrolo[2,3-d]pyrimidine-6-carboxamide]",< 100,> 5
"COc1ncnc(C2CC2)c1-c1ncc2cc(C(=O)N[C@@H]3CCN(C)C3)n(Cc3ccc(-c4nc(C(F)(F)F)cn4C)cc3)c2n1 [Example 169, (R) -2-(4-cyclopropyl-6-methoxypyrimidin-5-yl)-7-(4-(1-methyl-4-(trifluoromethyl)-1H-imidazol-2-yl)benzyl)-N-(1-methylpyrrolidin-3-yl)-7H-pyrrolo[2,3-d]pyrimidine-6-carboxamide]",< 100,> 5
"COc1ncnc(C2CC2)c1-c1ncc2cc(C(=O)N3CCN(C)CC3)n(Cc3ccc(-c4nc(C(F)(F)F)cn4C)cc3)c2n1 [Example 170, (2-(4-cyclopropyl-6-methoxypyrimid in-5-yl)-7-(4-(1-methyl-4-(trifluoromethyl)-1H-imidazol-2-yl)benzyl) -7H-pyrrolo[2,3-d]pyrimidin-6-yl) (4-methylpiperazi n-1-yl)methanone]",100 to 500,> 5
"COc1ncnc(C2CC2)c1-c1ncc2cc(C(=O)NC3CN(C)C3)n(Cc3ccc(-c4nc(C(F)(F)F)cn4C)cc3)c2n1 [Example 171, 2-(4-cyclopropyl-6-methoxypyrimidin-5-yl)-7-(4-(1-methyl-4-(trifluoromethyl)-1H-imidazol-2-yl)benzyl)-N-(1-methylazetidin-3-yl)-7H-pyrrolo[2,3-d]pyrimidine-6-carboxamide]",< 100,> 5
COc1ncnc(C2CC2)c1-c1ncc2cc(C(=O)NC3CCC(N(C)C)CC3)n(Cc3ccc(-c4nc(C(F)(F)F)cn4C)cc3)c2n1 (centres unmarked) [Example 172],< 100,> 5
"COc1ncnc(C2CC2)c1-c1ncc2cc(C(=O)N[C@H]3CCN(C)C3)n(Cc3ccc(-c4nc(C(F)(F)F)cn4C)cc3)c2n1 [Example 173, (S)-2-(4-cyclopropyl-6-methoxypyrimidin-5-yl)-7-(4-(1-methyl-4-(trifluoromethyl)-1H-imidazol-2-yl)benzyl)-N-(1-methylpyrrolidin-3-yl)-7H-pyrrolo[2,3-d]pyrimidine-6-carboxamide]",< 100,> 5
"COc1ncnc(C2CC2)c1-c1ncc2cc(C(=O)N[C@H]3CCN(C)C3)n(Cc3ccc(-c4nc(C(F)(F)F)cn4C(C)C)cc3)c2n1 [Example 174, (S)-2-(4-cyclopropyl-6-methoxypyrimidin-5-yl)-7-(4-(1-isopropyl-4-(trifluoromethyl)-1H-imidazol-2-yl)benzyl)-N-(1-methylpyrrolidin-3-yl)-7H-pyrrolo[2,3-d]pyrimidine-6-carboxamide]",< 100,> 5
"COc1ncnc(C2CC2)c1-c1ncc2cc(C(=O)N[C@@H]3CCN(C)C3)n(Cc3ccc(-c4nc(C(F)(F)F)cn4C(C)C)cc3)c2n1 [Example 175, (R)-2-(4-cyclopropyl-6-methoxypyrimidin-5-yl)-7-(4-(1-isopropyl-4-(trifluoromethyl)-1H-imidazol-2-yl)benzyl)-N-(1-methylpyrrolidin-3-yl)-7H-pyrrolo[2,3-d]pyrimidine-6-carboxamide]",< 100,> 5
"COc1ncnc(C2CC2)c1-c1ncc2cc(C(=O)NC[C@@H](O)CO)n(Cc3ccc(-c4nc(C(F)(F)F)cn4C)cc3)c2n1 [Example 176, (R) -2-(4-cyclopropyl-6-methoxypyrimidin-5-yl)-N-(2,3-dihydroxypropy 1)-7-(4-(1-methyl-4-(trifluoromethyl)-1H-imidazol-2-yl)benzyl)-7H-pyrrolo[2,3-d]pyrimidine-6-carboxamide]",100 to 500,> 5
"COc1ncnc(C2CC2)c1-c1ncc2cc(C(N)=O)n(Cc3ccc(-n4nc(C(F)(F)F)cc4C)cc3)c2n1 [Example 177, 2-(4-cyclopropyl-6-methoxypyrimidin-5-yl)-7-(4-(5-methyl-3-(trifluoromethyl)-1H-pyrazol-1-yl)benzyl)-7H-pyrrolo[2,3-d]pyrimidine-6-carboxamide]",< 100,> 5
"CNC(=O)c1cc2cnc(-c3cccnc3OC(F)F)nc2n1Cc1ccc(-c2nc(C(F)(F)F)cn2C(C)C)cc1 [Example 178, 2-(2-(difluoromethoxy)pyridin-3-yl)-7-(4-(1-isopropyl-4-(trifluoromethyl)-1H-imidazol-2-yl)benzyl)-N-methyl-7H-pyrrolo[2,3-d]pyrimidine-6-carboxamide]",< 100,> 5
"COc1ncnc(C2CC2)c1-c1ncc2cc(C(=O)N3CC(N(C)C)C3)n(Cc3ccc(-c4nc(C(F)(F)F)cn4C)cc3)c2n1 [Example 179, (2-(4-cyclopropyl-6-methoxypyrimid in-5-yl)-7-(4-(1-methyl-4-(trifluoromethyl)-1H-imidazol-2-yl)benzyl)-7H-pyrrolo[2,3-d]pyrimidin-6-yl) (3-(dimethylamino)azetidin-1-yl)methanone]",< 100,> 5
"CNC(=O)c1cc2cnc(-c3ccccc3C(C)C)nc2n1Cc1ccc(-c2nc(C(F)(F)F)cn2C)cc1 [Example 180, 2-(2-isopropylphenyl)-N-methyl-7-(4-(1-methyl-4-(trifluoromethyl)-1H-imidazol-2-yl)benzyl)-7H-pyrrolo[2,3-d]pyrimidine-6-carboxamide]",< 100,> 5
"COc1ncnc(C2CC2)c1-c1ncc2cc(C(=O)N[C@H]3CN(C)C[C@@H]3F)n(Cc3ccc(-c4nc(C(F)(F)F)cn4C)cc3)c2n1 [Example 181, 2-(4-cyclopropyl-6-methoxypyrimidin-5-yl)-N-((3S,4S)-4-fluoro-1-methylpyrrolidin-3-yl)-7-(4-(1-methyl-4-(trifluoromethyl)-1H-imidazol-2-yl)benzyl)-7H-pyrrolo[2,3-d]pyrimidine-6-carboxamide]",< 100,> 5
"COc1ncnc(C2CC2)c1-c1ncc2cc(C(=O)N[C@H]3CN(C)C[C@H]3F)n(Cc3ccc(-c4nc(C(F)(F)F)cn4C)cc3)c2n1 [Example 182, 2-(4-cyclopropyl-6-methoxypyrimidin-5-yl)-N-((3S,4R)-4-fluoro-1-methylpyrrolidin-3-yl)-7-(4-(1-methyl-4-(trifluoromethyl)-1H-imidazol-2-yl)benzyl)-7H-pyrrolo[2,3-d]pyrimidine-6-carboxamide]",< 100,> 5
"[2H]C([2H])([2H])n1cc(C(F)(F)F)nc1-c1ccc(Cn2c(C(=O)NC)cc3cnc(-c4c(OC)ncnc4C4CC4)nc32)cc1 [Example 183, 2-(4-cyclopropyl-6-methoxypyrimidin-5-yl)-N-methyl-7-(4-(1-(methyl-d3)-4-(trifluoromethyl)-1H-imidazol-2-yl)benzyl)-7H-pyrrolo[2,3-d]pyrimidine-6-carboxamide]",< 100,> 5
